Laboratory results reported in patent US20100075370A1, “METHOD FOR DETERMINATION OF CELL VIABILITY BY USING FLOW CYTOMETRY WITH FIXED VOLUME ACQUISITION” (TUMORTEC GMBH, priority 2006, published 2010).

What was measured:
[1] = test system: pBMC from patients with CLL; experiment: Cytotoxicity of several antineoplastic agents on pBMC (LC90), fixed volume flow cytometry; type: cell-based, human; details: in µg/mL
Excerpt: The necessary peripheral blood (PB) samples from adult patients diagnosed with chronic lymphatic leukaemia (CLL) were collected into heparin during routine diagnosis prior to administration of chemotherapy.

[2] = test system: patient samples (pBMC from CLL patients); experiment: Cytotoxicity assay of example 1 (new method), chemosensitivity index Ci; type: cell-based, human
Experimental: (2) A more complex standardization is the calculation of an index. In case of the chemosensitivity testing it is not a single value that has to be standardized. The chemosensitivity towards a drug is tested with several concentrations of the drug in parallel in a cell culture assay. […] This method was adopted for the present invention from the analysis of DiSC assays (Staib et al., British Journal of Haematology, 2005, 128, 783-791). The Chemosensitivity Index Ci was designed as a prognostic index for ex vivo chemosensitivity assays. Assay results were expressed as percent tumor cell survival (% TCS). The dose-response curve as a function of the dose-response relationship may be mathematically described by a […] regression model (FIG. 4). The dose-response curve was defined as CS=c1*e^conc*c2 % with cell survival (CS), drug concentration (conc) and the constants c1 and c2. c1 represented the y-axis distance and c2 the slope of the curve. The area under the curve (AUC) as an exact measure for the total dose response relation was defined as AUC=−e^c1/c2, on condition that c2 is less than 0, otherwise AUC is infinite. The chemosensitivity index, Ci, was set up as Ci=e^−AUC*c with a domain between 0 and 1. The drug-specific constant c was used for adjusting the Ci-value of 0.5 as the cut-off point between resistance and sensitivity. The constant c was defined as
with AUCcut-off as the smallest AUC value among all clinical non-responding patients of the training data set. Obviously, all cytotoxic agents given for treatment were ineffective in these patients. The cut-off Ci value must be adjusted to 0.5 for prognosis of the effect of the drug on a patient in vivo when the drug is tested on said patient's cells in vitro using the method of the present invention. Ci values of 0-0.5 indicated resistance and values above 0.5 predicted sensitivity against the drug tested.
Peripheral blood mononuclear cells (pBMC) from a patient with chronic lymphatic leukaemia were isolated from the PB samples as described before (Staib, P. et al., Br. J. Haematol., 128(6):783-91 (2005)), resuspended in RPMI 1640 medium (Biochrom, Berlin, Germany) containing 20 vol. % fetal calf serum (FCS; Biochrom, Berlin, Germany) and added into the precoated 96-well plate with a final cell concentration of 10,000 cells/well and a volume of 100 μl. The plates were then agitated for 15 min in order to solubilize the dried fludarabine phosphate. Subsequently, the plates were incubated for 96 h (37° C., 5% CO2, humidified atmosphere). Thereafter, 50 μl of an 11 μM propidium iodide (PI)-solution in 0.9% aqueous NaCl solution (NaCl 0.9%) (Invitrogen, Leiden, Netherlands) were added and incubated for 15 min at room temperature. PI is a standard flow cytometric viability probe and is used to distinguish viable from nonviable cells. Viable cells with intact membranes exclude PI, whereas the membranes of dead and damaged cells are permeable to PI. PI only stains cells with compromised cell membrane, whilst live cells which have intact membranes are not stained by PI.
The chemosensitivity index Ci based on the DiSC assay as described in Staib, P. et al., Br. J. Haematol., 128(6):783-91 (2005) is known to have a very high accuracy of prediction (98%) for the clinical outcome of a particular chemotherapy (Staib, P. et al., Br. J. Haematol., 128(6):783-91 (2005)). In order to evaluate the accuracy of the cytotoxicity assay as described in example 1 (“new method”), the Ci determination was performed for assay results of patient samples analyzed with the traditional DiSC assay and—in parallel—with the new assay method described in example 1. In total, 22 patient samples were analyzed. Fludara® was used in both assays. The cytotoxicity assay of example 1 was performed as described therein, and the DiSC assay was performed as described in Staib, P. et al., Br. J. Haematol., 128(6):783-91 (2005).

Compound: Nc1nc(F)nc2c1ncn2[C@@H]1O[C@H](COP(=O)(O)O)[C@@H](O)[C@@H]1O [Fludarabine phosphate, 2-Fluoro-9-(5-O-phosphono-β-D-arabinofuranosyl)-9H-purin-6-amine]
- LC90 ([1]; pBMC of CLL patient #1, ex vivo): 69.69
- LC90 ([1]; pBMC of CLL patient #2, ex vivo): 11.74
- LC90 ([1]; pBMC of CLL patient #3, ex vivo): 0.09
- LC90 ([1]; pBMC of CLL patient #4, ex vivo): 26.00
- LC90 ([1]; pBMC of CLL patient #5, ex vivo): 0.46
- LC90 ([1]; pBMC of CLL patient #6, ex vivo): 18.17
- LC90 ([1]; pBMC of CLL patient #7, ex vivo): 13.25
- LC90 ([1]; pBMC of CLL patient #8, ex vivo): 15.02
- LC90 ([1]; pBMC of CLL patient #9, ex vivo): 0.94
- LC90 ([1]; pBMC of CLL patient #10, ex vivo): 0.01
- LC90 ([1]; pBMC of CLL patient #11, ex vivo): 2.15
- LC90 ([1]; pBMC of CLL patient #12, ex vivo): 0.33
- LC90 ([1]; pBMC of CLL patient #13, ex vivo): 0.82
- LC90 ([1]; pBMC of CLL patient #14, ex vivo): 0.86
- LC90 ([1]; pBMC of CLL patient #15, ex vivo): 0.58
- LC90 ([1]; pBMC of CLL patient #16, ex vivo): 0.22
- LC90 ([1]; pBMC of CLL patient #17, ex vivo): 0.55
- LC90 ([1]; pBMC of CLL patient #18, ex vivo): 0.55
- LC90 ([1]; pBMC of CLL patient #19, ex vivo): 0.50
- LC90 ([1]; pBMC of CLL patient #20, ex vivo): 0.00
- LC90 ([1]; pBMC of CLL patient #21, ex vivo): 0.11
- LC90 ([1]; pBMC of CLL patient #22, ex vivo): 81.92
- LC90 ([1]; pBMC of CLL patient #23, ex vivo): 0.01
- LC90 ([1]; pBMC of CLL patient #24, ex vivo): 23.76
- LC90 ([1]; pBMC of CLL patient #25, ex vivo): 35.21
- patients DiSC-Assay resistant / New method sensitive ([2]; of 22 patients): 0
- patients DiSC-Assay sensitive / New method resistant ([2]; of 22 patients): 0
- Ci (New Method) ([2]; patient #1): 0.99
- prediction (New Method) ([2]; patient #1): sensitive (values above 0.5 predicted sensitivity against the drug tested)
- Ci (New Method) ([2]; patient #2): 0.94
- prediction (New Method) ([2]; patient #2): sensitive (values above 0.5 predicted sensitivity against the drug tested)
- Ci (New Method) ([2]; patient #3): 0.99
- prediction (New Method) ([2]; patient #3): sensitive (values above 0.5 predicted sensitivity against the drug tested)
- Ci (New Method) ([2]; patient #4): 0.89
- prediction (New Method) ([2]; patient #4): sensitive (values above 0.5 predicted sensitivity against the drug tested)
- Ci (New Method) ([2]; patient #5): 0.93
- prediction (New Method) ([2]; patient #5): sensitive (values above 0.5 predicted sensitivity against the drug tested)
- Ci (New Method) ([2]; patient #6): 0.79
- prediction (New Method) ([2]; patient #6): sensitive (values above 0.5 predicted sensitivity against the drug tested)
- Ci (New Method) ([2]; patient #7): 0.74
- prediction (New Method) ([2]; patient #7): sensitive (values above 0.5 predicted sensitivity against the drug tested)
- Ci (New Method) ([2]; patient #8): 0.83
- prediction (New Method) ([2]; patient #8): sensitive (values above 0.5 predicted sensitivity against the drug tested)
- Ci (New Method) ([2]; patient #9): 0.65
- prediction (New Method) ([2]; patient #9): sensitive (values above 0.5 predicted sensitivity against the drug tested)
- Ci (New Method) ([2]; patient #10): 0.74
- prediction (New Method) ([2]; patient #10): sensitive (values above 0.5 predicted sensitivity against the drug tested)
- Ci (New Method) ([2]; patient #11): 0.60
- prediction (New Method) ([2]; patient #11): sensitive (values above 0.5 predicted sensitivity against the drug tested)
- Ci (New Method) ([2]; patient #12): 0.81
- prediction (New Method) ([2]; patient #12): sensitive (values above 0.5 predicted sensitivity against the drug tested)
- Ci (New Method) ([2]; patient #13): 0.65
- prediction (New Method) ([2]; patient #13): sensitive (values above 0.5 predicted sensitivity against the drug tested)
- Ci (New Method) ([2]; patient #14): 0.63
- prediction (New Method) ([2]; patient #14): sensitive (values above 0.5 predicted sensitivity against the drug tested)
- Ci (New Method) ([2]; patient #15): 0.71
- prediction (New Method) ([2]; patient #15): sensitive (values above 0.5 predicted sensitivity against the drug tested)
- Ci (New Method) ([2]; patient #16): 0.35
- prediction (New Method) ([2]; patient #16): resistant (Ci values of 0-0.5 indicated resistance)
- Ci (New Method) ([2]; patient #17): 0.41
- prediction (New Method) ([2]; patient #17): resistant (Ci values of 0-0.5 indicated resistance)
- Ci (New Method) ([2]; patient #18): 0.35
- prediction (New Method) ([2]; patient #18): resistant (Ci values of 0-0.5 indicated resistance)
- Ci (New Method) ([2]; patient #19): 0.24
- prediction (New Method) ([2]; patient #19): resistant (Ci values of 0-0.5 indicated resistance)
- Ci (New Method) ([2]; patient #20): 0.36
- prediction (New Method) ([2]; patient #20): resistant (Ci values of 0-0.5 indicated resistance)
- Ci (New Method) ([2]; patient #21): 0.41
- prediction (New Method) ([2]; patient #21): resistant (Ci values of 0-0.5 indicated resistance)
- Ci (New Method) ([2]; patient #22): 0.24
- prediction (New Method) ([2]; patient #22): resistant (Ci values of 0-0.5 indicated resistance)
